Marks after values point to notes of the source that are not given here. Bounds are passed on as bounds.

The conditions of data set [1]: in vivo; cited from earlier work.
For data set [2] the following is noted: in vivo; cited from earlier work. This is another data set of the same source.
The subject of data set [3] is rat liver microsomes. Type of data set: biochemical. Also on record: unit not given here.
Data set [4] has as its system Salmonella typhimurium. The note with it: cited from earlier work.
Data set [5] concerns rat liver microsomes. In words: Color development in detection elements with different leuco dyes (Table 2). The format is biochemical. As to conditions: applied dose 10 μmol (formaldehyde 1 μmol); for New Color Development, NBTZ: unexposed control also Black. Here is the method:
Solutions containing 0.5 mM of the respective dyes in 0.1 M TRIS buffer, pH=7.4 (except for nitro blue tetrazolium, 5.0 mM in 50% ethanolic TRIS, pH=7.4) were bleached with a few crystals of sodium sulfite or sodium dithionite, then plied in 0.02 mL aliquots as test spots on a clear sheet of transparency film. Spontaneous color development in air was noted (Table 2). Subsequently, a suspension of rat liver microsomes containing 1 mM NADPH and 1 mg/mL gelatin in 0.1 M TRIS-MOPS buffer (pH=7.7) was plied in 0.05 mL aliquots over the dried leuco-dye test spots. After drying, color development condition was noted, and the test spots saved for exposure tests to chemical substances (Table 2). Exposures were carried out by layering 0.01 mL of 0.1-1.0 M solutions of test chemical substances onto the test spots, and changes in color noted over time.

Data set [6] relates to rat liver microsomes. The format is biochemical. The arrangement: key: Positive: the development of coloration denoted a positive response; Negative: the absence of such coloration denoted a negative response.

Consider `Cc1cc(C(C)(C)C)c(O)c(C(C)(C)C)c1` [BHT], for which the “Teratogen Activity” value in data set [1] is “-”. Also, in data set [2], the “Tumorigen Activity” value is “+/-”. Besides, the “Detector Response, threshold dose” value in data set [3] is 200. Also, in data set [4], the Mutagenicity result is “-”.
Turning to `[Ba+2]` [Barium(II)], the “Teratogen Activity” value in data set [1] is on record as “-”. In addition, in data set [2], the “Tumorigen Activity” value is recorded as “-”. In addition, in data set [3], the “Detector Response, threshold dose” value was 20-100. Further, the Mutagenicity entry in data set [4] is listed as “-”.
For `CC(Cl)(Cl)Cl` [CH3 CCl3], in data set [5], the “New Color Development, Methyl Green leuco dye” value is recorded as “None”; the “New Color Development, Methyl Violet leuco dye” value is reported as “None^a,b”; the “New Color Development, Naphthol Blue-Black leuco dye” value was “None”; the “New Color Development, Nile Blue A leuco dye” value is “None”. Besides, in data set [5], the “New Color Development, Safranin O leuco dye” value was “None” and the “New Color Development, NBTZ” value is on record as “Black”.
For the molecule `[Ca+2]` [Calcium(II)], the “Teratogen Activity” value in data set [1] is given as “-”. For the same molecule, the “Tumorigen Activity” value in data set [2] is given as “+/-”. In addition, in data set [3], the “Detector Response, threshold dose” value came to 10. Moreover, the Mutagenicity result in data set [4] was “-”.
As for `ClC1=C(Cl)C2(Cl)C3C(Cl)C(Cl)CC3C1(Cl)C2(Cl)Cl` (stereo not drawn) [Chlordane], in data set [2], the “Carcinogenic Status” value was “Positive”. Also, the “Invention Response” value in data set [6] is “Positive”.
Turning to `CCOP(=S)(OCC)Oc1nc(Cl)c(Cl)cc1Cl` [Chlorpyrifos (ind.), Chlorpyrifos], the “Teratogen Activity” value in data set [1] is “+”. Further, the “Tumorigen Activity” value in data set [2] is on record as “-”. For the same molecule, the “Detector Response, threshold dose” value in data set [3] came out at 0.01. In addition, in data set [4], the Mutagenicity result is “-”.
Turning to `O=c1ccc2ccccc2o1` [Coumarin], in data set [2], the “Carcinogenic Status” value was “Positive”. The “Invention Response” value in data set [6] was “Positive”.
Turning to `N#CN` [Cyanamid], the “Teratogen Activity” value in data set [1] is recorded as “-”. For the same molecule, the “Tumorigen Activity” value in data set [2] is on record as “+^e”. Besides, the “Detector Response, threshold dose” value in data set [3] was 30. The Mutagenicity entry in data set [4] was “+”.
For `C[C@H](CCC(=O)O)[C@H]1CC[C@H]2[C@@H]3CC[C@@H]4C[C@H](O)CC[C@]4(C)[C@H]3C[C@H](O)[C@]12C` [Deoxycholate], the “Teratogen Activity” value in data set [1] was “+”. In data set [2], the “Tumorigen Activity” value was “-”. Besides, in data set [3], the “Detector Response, threshold dose” value was determined as 0.5. Besides, the Mutagenicity result in data set [4] is on record as “-”.
With `CCOP(=S)(OCC)Oc1cc(C)nc(C(C)C)n1` [Diazinon (ind.), Diazinon], the “Teratogen Activity” value in data set [1] is on record as “+”. The “Tumorigen Activity” value in data set [2] was “-”. The “Detector Response, threshold dose” value in data set [3] was 1-100. The Mutagenicity result in data set [4] is on record as “-”.
Regarding `CCN(CC)C(=S)S` [Diethyldithiocarbamic acid], the “Teratogen Activity” value in data set [1] is on record as “+”. Moreover, in data set [2], the “Tumorigen Activity” value is on record as “+^t” and the “Tumorigen Activity, assignment based on NCI/NTP carcinogenesis bioassay results” value is given as “-”. In data set [3], the “Detector Response, threshold dose” value is given as 0.2. The Mutagenicity result in data set [4] is listed as “-”.
`CCN(CC)N=O` [Diethylnitrosamine]: the “Teratogen Activity” value in data set [1] was “+”. The “Tumorigen Activity” value in data set [2] is given as “+”. The “Detector Response, threshold dose” value in data set [3] was 0.1-1. Also, the Mutagenicity entry in data set [4] is listed as “+”.
Take `c1ccc(Nc2ccccc2)cc1` [Diphenylamine]: the “Teratogen Activity” value in data set [1] is given as “+”. For the same molecule, the “Tumorigen Activity” value in data set [2] is recorded as “-”. In data set [3], the “Detector Response, threshold dose” value is 100. The Mutagenicity entry in data set [4] was “-”.
Take `[Dy+3]` [Dysprosium(III)]: the “Teratogen Activity” value in data set [1] is given as “-”. Besides, in data set [2], the “Tumorigen Activity” value is listed as “-”. Also, the “Detector Response, threshold dose” value in data set [3] was 5. Besides, the Mutagenicity entry in data set [4] is given as “-”.
For `O=S1OCC2C(CO1)C1(Cl)C(Cl)=C(Cl)C2(Cl)C1(Cl)Cl` (stereo not drawn) [Endosulfan (ind.), Endosulfan], in data set [1], the “Teratogen Activity” value is “+”. Besides, in data set [2], the “Tumorigen Activity” value is reported as “+^b” and the “Tumorigen Activity, assignment based on NCI/NTP carcinogenesis bioassay results” value is on record as “-”. In addition, in data set [3], the “Detector Response, threshold dose” value was 0.1. Also, in data set [4], the Mutagenicity entry was “-”.
As for `CC(C)[C@@H](C)/C=C/[C@@H](C)[C@H]1CC[C@H]2C3=CC=C4C[C@@H](O)CC[C@]4(C)[C@H]3CC[C@]12C` [Ergosterol], in data set [1], the “Teratogen Activity” value is “+”. Moreover, the “Tumorigen Activity” value in data set [2] is listed as “-”. The “Detector Response, threshold dose” value in data set [3] amounted to 0.1. Also, in data set [4], the Mutagenicity result is reported as “-”. For the same molecule, in data set [5], the “New Color Development, Methyl Green leuco dye” value is on record as “Green”; the “New Color Development, Methyl Violet leuco dye” value is recorded as “Violet”; the “New Color Development, Naphthol Blue-Black leuco dye” value is reported as “None”; the “New Color Development, Nile Blue A leuco dye” value is “Blue”. In addition, in data set [5], the “New Color Development, Safranin O leuco dye” value is on record as “Pink” and the “New Color Development, NBTZ” value was “Black”.
As to `CCOC(=O)c1ccc(O)cc1` [Ethyl p-Hydroxybenzoate], in data set [1], the “Teratogen Activity” value is recorded as “+”. The “Tumorigen Activity” value in data set [2] was “-”. For the same molecule, the “Detector Response, threshold dose” value in data set [3] was found to be 30. In data set [4], the Mutagenicity entry is “-”.
As to `NC=O` [Formamide], the “Teratogen Activity” value in data set [1] is “+”. Further, in data set [2], the “Tumorigen Activity” value was “-”. In addition, the “Detector Response, threshold dose” value in data set [3] came out at 100. The Mutagenicity result in data set [4] is listed as “-”.
As to `O=C(O)CNCP(=O)(O)O` [Glyphosate (ind.), Glyphosate], the “Teratogen Activity” value in data set [1] is “-”. Moreover, the “Tumorigen Activity” value in data set [2] is listed as “-”. The “Detector Response, threshold dose” value in data set [3] worked out at 0.3. Besides, the Mutagenicity entry in data set [4] was “-”.
Regarding `C[C@]12CCC(=O)C=C1CC[C@@H]1[C@@H]2[C@@H](O)C[C@@]2(C)[C@H]1CC[C@]2(O)C(=O)CO` [Hydrocortisone], the “Teratogen Activity” value in data set [1] is “+”. Further, the “Tumorigen Activity” value in data set [2] was “-”. For the same molecule, the “Detector Response, threshold dose” value in data set [3] came out at 0.1. The Mutagenicity entry in data set [4] is on record as “-”.
Take `[La+3]` [Lanthanum(III)]: in data set [1], the “Teratogen Activity” value is on record as “-”. In addition, the “Tumorigen Activity” value in data set [2] is on record as “-”. The “Detector Response, threshold dose” value in data set [3] came out at 5. In addition, the Mutagenicity result in data set [4] is on record as “-”.
As for `Cl[C@H]1[C@H](Cl)[C@@H](Cl)[C@@H](Cl)[C@H](Cl)[C@H]1Cl` [Lindane (USP), Lindane], in data set [1], the “Teratogen Activity” value is reported as “+”. Also, in data set [2], the “Tumorigen Activity” value is listed as “+”. In addition, the “Detector Response, threshold dose” value in data set [3] came to 0.2. For the same molecule, the Mutagenicity entry in data set [4] is reported as “-”.
For the molecule `CCOC(=O)CC(SP(=S)(OC)OC)C(=O)OCC` (stereo not drawn) [Malathion (ind.), Malathion], the “Teratogen Activity” value in data set [1] was “+”. Also, the “Tumorigen Activity” value in data set [2] is “-”. The “Detector Response, threshold dose” value in data set [3] was determined as 0.1. In data set [4], the Mutagenicity entry is “-” and the “Mutagenicity, direct-acting mutagen” value is “+”.
In the case of `[Mn+2]` [Manganese(II)], the “Teratogen Activity” value in data set [1] is given as “+”. Besides, the “Tumorigen Activity” value in data set [2] is given as “+”. The “Detector Response, threshold dose” value in data set [3] turned out to be 5. The Mutagenicity entry in data set [4] is “-”.
With `C=CC(=O)NCNC(=O)C=C` [Methylene(bis)acrylamide, Methylene(bis)-acrylamide], the “Teratogen Activity” value in data set [1] is “-”. Moreover, in data set [2], the “Tumorigen Activity” value was “-”. For the same molecule, the “Detector Response, threshold dose” value in data set [3] is given as less than 2. In data set [4], the Mutagenicity result is recorded as “-”.
As to `Cc1cc(O)ccc1O` [Methylhydroquinone], in data set [1], the “Teratogen Activity” value is listed as “-”. Besides, in data set [2], the “Tumorigen Activity” value was “-”. The “Detector Response, threshold dose” value in data set [3] came out at 30. The Mutagenicity result in data set [4] was “-”.
With `O=N[O-].[Na+]` [NaNO2], in data set [1], the “Teratogen Activity” value is “+”. Further, the “Tumorigen Activity” value in data set [2] is “+”. Also, the “Detector Response, threshold dose” value in data set [3] was determined as 0.1. In addition, the Mutagenicity result in data set [4] was “+”.
Turning to `c1ccc(-c2cnc(-c3ccc(-c4ncc(-c5ccccc5)o4)cc3)o2)cc1` [POPOP], the “Carcinogenic Status” value in data set [2] was “Negative”. Moreover, in data set [6], the “Invention Response” value is on record as “Negative”.
As for `Nc1c(Cl)c(Cl)nc(C(=O)O)c1Cl` [Picloram (ind.), Picloram], the “Teratogen Activity” value in data set [1] is given as “+”. Besides, the “Tumorigen Activity, assignment based on NCI/NTP carcinogenesis bioassay results” value in data set [2] is reported as “+”. The “Detector Response, threshold dose” value in data set [3] came to 0.01. Besides, in data set [4], the Mutagenicity result is reported as “-”.
With `O=C1C=CC(=O)C=C1.Oc1ccc(O)cc1` [Quinhydrone], the “Teratogen Activity” value in data set [1] was “-”. The “Tumorigen Activity” value in data set [2] is reported as “+^e”. Further, in data set [3], the “Detector Response, threshold dose” value is recorded as 0.1-0.2. Also, in data set [4], the Mutagenicity entry was “-”.
Consider `C=Cc1ccccc1` [Styrene], for which the “Carcinogenic Status” value in data set [2] is listed as “Negative”. The “Invention Response” value in data set [6] is reported as “Negative”.
Take `OC[C@H]1O[C@@](CO)(O[C@H]2O[C@H](CO)[C@@H](O)[C@H](O)[C@H]2O)[C@@H](O)[C@@H]1O` [Sucrose]: the “Carcinogenic Status” value in data set [2] is given as “Negative”. The “Invention Response” value in data set [6] is listed as “Negative”.
As for `Cc1cccc(O)c1` [m-Cresol], the “Teratogen Activity” value in data set [1] was “-”. In data set [2], the “Tumorigen Activity” value is reported as “-”. In addition, the “Detector Response, threshold dose” value in data set [3] is reported as 2. In addition, the Mutagenicity entry in data set [4] is recorded as “-”.
As for Copper(II), in data set [1], the “Teratogen Activity” value was “+”. Moreover, the “Tumorigen Activity” value in data set [2] is reported as “+/-”. Further, the “Detector Response, threshold dose” value in data set [3] amounted to 5. Further, the Mutagenicity result in data set [4] is reported as “-”.
Turning to Cr(VI), in data set [1], the “Teratogen Activity” value was “-”. The “Tumorigen Activity” value in data set [2] is reported as “+^e”. Further, the “Detector Response, threshold dose” value in data set [3] was 0.1. In data set [4], the Mutagenicity result is given as “+”.
